# Columns and labels:
# Format in all cases: cell-based
# PPAR alpha = target: T1, PPAR alpha (Homo sapiens, UniProt Q07869); experiment: Full-length PPAR transcriptional activation assay (PPRE::Luciferase reporter, HEK293 cells), PPAR alpha; conditions: transfected HEK293 cells, species of receptor not given
# T1 construct: expressed in transfected cells; host or cells: HEK293
# T1 sequence (Q07869 1-468): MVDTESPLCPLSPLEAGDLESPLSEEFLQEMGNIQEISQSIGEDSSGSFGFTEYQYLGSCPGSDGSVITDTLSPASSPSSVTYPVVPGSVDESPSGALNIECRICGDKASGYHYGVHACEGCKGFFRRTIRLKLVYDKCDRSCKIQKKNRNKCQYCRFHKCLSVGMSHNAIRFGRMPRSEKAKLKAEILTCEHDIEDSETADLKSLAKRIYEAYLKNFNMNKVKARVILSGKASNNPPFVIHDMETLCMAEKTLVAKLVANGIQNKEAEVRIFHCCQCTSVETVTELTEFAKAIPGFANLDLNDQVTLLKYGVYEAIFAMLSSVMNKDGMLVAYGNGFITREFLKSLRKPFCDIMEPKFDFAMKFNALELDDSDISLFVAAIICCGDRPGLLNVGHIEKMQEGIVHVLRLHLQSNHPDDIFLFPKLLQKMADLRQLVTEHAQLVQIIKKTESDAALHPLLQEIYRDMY
# Description: (§1) HEK293 cells were seeded the day before transfection into 384-well plates at a cell density of 6,000 cells per well in 40 μl assay medium I (phenol red-free DMEM containing 4% charcoal-dextran stripped FBS, 1% Penicillin-Streptomycin and 1% GlutaMax-1). Then 25 ng of PPRE::Luciferase reporter plasmid, an expression plasmid (25 pg of PPARα, or 40 pg of PPARδ, or 75 pg of PPARγ2), and an appropriate amount of the plasmid pUC19 to bring the total DNA amount to 50 ng was added to 20 μl of phenol-red free DMEM and 150 nL of Fugene 6 and incubated for 30 minutes. The transfection mixtures were then added to the cells and incubated for three hours. 10 μl of test agents in 5% DMSO were then added to the cells and incubated at 37° C. for an additional 18 hours. Luciferase activity was then assayed by adding 25 μl/well of Britelite (Perkin Elmer) according to the manufacturer's protocol and relative light output was measured with an Analyst GT plate reader (Molecular Devices). All experimental points were done in triplicate and the assays were repeated at least 3 times.
# (§2) HEK293 cells were seeded the day before transfection in […] dishes at a density of 9×10^6 cells/dish and incubated at 37° C., 10% CO2 for 16-24 hours. Then, […] of PPRE::Luciferase reporter plasmid, an expression plasmid (7.5 ng of PPARα, or 7.5 ng of PPARδ, or 75 ng of PPARγ2), and an appropriate amount of the plasmid pUC19 to bring the total DNA amount to […] were mixed with 54 μl of Fugene 6 in 2 mls of phenol red-free DMEM and incubated for 30 minutes. Transfection mixtures were then incubated with the cells for 18 hours. Cells were then replated into sterile, white TC treated 384-well assay plates at a cell density of 24×10^3 cells/well in 40 μl of assay medium II (phenol-red free DMEM containing 3% charcoal/dextran-stripped FBS, 1% Penicillin-Streptomycin and 1% GlutaMax-1) and incubated at 37° C. for 6 hours. 10 μl of test agents in 5% DMSO were then added to the cells and incubated at 37° C. for an additional 18 hours. Luciferase activity was then assayed by adding 30 μl/well of Britelite (Perkin Elmer) according to the manufacturer's protocol and relative light output was measured with an Analyst GT plate reader (Molecular Devices). All experimental points were done in triplicate and the assays were repeated 3 times.
# PPAR delta = target: T2, PPAR delta (Homo sapiens, UniProt Q03181); experiment: Full-length PPAR transcriptional activation assay (PPRE::Luciferase reporter, HEK293 cells), PPAR delta; conditions: transfected HEK293 cells, species of receptor not given
# T2 construct: expressed in transfected cells; host or cells: HEK293
# T2 sequence (Q03181 1-441): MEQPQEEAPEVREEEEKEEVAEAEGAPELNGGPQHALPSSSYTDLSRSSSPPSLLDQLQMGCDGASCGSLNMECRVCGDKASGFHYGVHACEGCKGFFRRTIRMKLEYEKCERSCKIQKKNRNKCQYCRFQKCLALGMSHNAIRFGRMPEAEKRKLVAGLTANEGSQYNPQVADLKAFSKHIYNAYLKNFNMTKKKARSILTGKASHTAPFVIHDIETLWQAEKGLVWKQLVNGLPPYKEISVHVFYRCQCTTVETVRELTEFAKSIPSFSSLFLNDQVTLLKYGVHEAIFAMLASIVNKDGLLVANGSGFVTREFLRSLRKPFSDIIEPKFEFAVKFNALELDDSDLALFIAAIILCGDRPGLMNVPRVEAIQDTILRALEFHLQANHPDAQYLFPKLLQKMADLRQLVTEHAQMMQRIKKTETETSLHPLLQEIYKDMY
# Description: as §1, §2
# PPAR gamma = target: T3, PPAR gamma (Homo sapiens, UniProt P37231); experiment: Full-length PPAR transcriptional activation assay (PPRE::Luciferase reporter, HEK293 cells), PPAR gamma; conditions: transfected HEK293 cells (PPARγ2 plasmid), species of receptor not given
# T3 construct: expressed in transfected cells; host or cells: HEK293
# T3 sequence (P37231 1-505): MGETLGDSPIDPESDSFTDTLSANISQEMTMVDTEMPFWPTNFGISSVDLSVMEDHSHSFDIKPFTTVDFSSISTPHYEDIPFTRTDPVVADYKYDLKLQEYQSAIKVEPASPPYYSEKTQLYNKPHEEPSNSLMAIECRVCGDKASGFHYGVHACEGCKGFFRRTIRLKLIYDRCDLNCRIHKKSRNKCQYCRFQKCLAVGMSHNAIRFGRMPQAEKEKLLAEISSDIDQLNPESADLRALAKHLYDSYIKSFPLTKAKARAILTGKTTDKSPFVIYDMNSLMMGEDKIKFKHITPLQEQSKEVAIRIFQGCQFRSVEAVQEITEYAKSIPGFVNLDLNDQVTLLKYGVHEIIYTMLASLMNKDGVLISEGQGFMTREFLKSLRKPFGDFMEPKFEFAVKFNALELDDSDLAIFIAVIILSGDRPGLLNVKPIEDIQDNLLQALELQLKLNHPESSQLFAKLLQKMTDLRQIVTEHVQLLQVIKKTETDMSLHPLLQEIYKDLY
# Description: as §1, §2
EC50 (PPAR alpha) [µM],EC50 (PPAR delta) [µM],EC50 (PPAR gamma) [µM],SMILES
> 1,≤ 1,≤ 1,"CCc1cnc(N(CCN2CCc3ccc(CC(=O)O)cc3C2)Cc2ccc(C(F)(F)F)cc2C(F)(F)F)nc1 [Example 4, (2-{2-[(2,4-Bis-trifluoromethyl-benzyl)-(5-ethyl-pyrimidin-2-yl)-amino]-ethyl}-1,2,3,4-tetrahydro-isoquinolin-7-yl)-acetic acid]"
> 1,≤ 1,≤ 1,"CCc1cnc(N(CCCC2CCc3ccc(CC(=O)O)cc3O2)Cc2ccc(C(F)(F)F)cc2)nc1 (stereo not drawn) [Example 10, (2-{3-[(5-Ethyl-pyrimidin-2-yl)-(4-trifluoromethyl-benzyl)-amino]-propyl}-chroman-7-yl)-acetic acid]"
> 1,> 1,> 1,"CCc1cnc(N(CCCN2CCc3ccc(CC(=O)O)cc3C2)c2ccc(OC(F)(F)F)cc2)nc1 [Example 6, (2-{3-[(5-Ethyl-pyrimidin-2-yl)-(4-trifluoromethoxy-phenyl)-amino]-propyl}-1,2,3,4-tetrahydroisoquinolin-7-yl)-acetic acid]"
> 1,≤ 1,≤ 1,"CCc1cnc(N(CCCC2Oc3cccc(CC(=O)O)c3CC2C)Cc2ccc(OC(F)(F)F)cc2)nc1 (single isomer, unassigned) [Example 19A, 2-(2-(3-((5-ethylpyrimidin-2-yl)(4-(trifluoromethoxy)benzyl)amino)propyl)-3-methylchroman-5-yl)acetic acid]"
> 1,> 1,> 1,"CCc1cnc(N(CCCCN2CCc3ccc(CC(=O)O)cc3C2)c2ccc(OC(F)(F)F)cc2)nc1 [Example 5, (2-{4-[(5-Ethyl-pyrimidin-2-yl)-(4-trifluoromethoxy-phenyl)-amino]-butyl}-1,2,3,4-tetrahydro-isoquinolin-7-yl)-acetic acid]"
≤ 1,≤ 1,≤ 1,"CCc1cnc(N(CCCC2Oc3cc(CC(=O)O)ccc3CC2C)Cc2ccc(OC(F)(F)F)cc2)nc1 (single isomer, unassigned) [Example 18B]"
> 1,≤ 1,> 1,"CCc1cnc(N(CCc2ccc(C(F)(F)F)cc2)CCN2CCc3ccc(CC(=O)O)cc3C2)nc1 [Example 8, [2-(2-{(5-Ethyl-pyrimidin-2-yl)-[2-(4-trifluoromethyl-phenyl)-ethyl]-amino}-ethyl)-1,2,3,4-tetrahydro-isoquinolin-7-yl]-acetic acid]"
> 1,≤ 1,≤ 1,"CCc1cnc(N(CCCN2CCc3ccc(CC(=O)O)cc3C2)Cc2ccc(C(F)(F)F)cc2C(F)(F)F)nc1 [Example 2, (2-{3-[(2,4-Bis-trifluoromethyl-benzyl)-(5-ethyl-pyrimidin-2-yl)-amino]-propyl}-1,2,3,4-tetrahydro-isoquinolin-7-yl)-acetic acid]"
> 1,≤ 1,≤ 1,"CCc1cnc(N(CCCC2Oc3cccc(CC(=O)O)c3CC2C)Cc2ccc(OC(F)(F)F)cc2)nc1 (single isomer, unassigned) [Example 19C, 2-(2-(3-((5-ethylpyrimidin-2-yl)(4-(trifluoromethoxy)benzyl)amino)propyl)-3-methylchroman-5-yl)acetic acid]"
≤ 1,≤ 1,> 1,"CCc1cnc(N(CCCC2Oc3cc(CC(=O)O)ccc3CC2C)Cc2ccc(OC(F)(F)F)cc2)nc1 (single isomer, unassigned) [Example 18C]"
≤ 1,≤ 1,≤ 1,"CCc1cnc(N(CCC2CCc3c(CC(=O)O)cccc3O2)Cc2ccc(C(F)(F)F)cc2)nc1 (stereo not drawn) [Example 17, 2-(2-(2-((5-ethylpyrimidin-2-yl)(4-(trifluoromethyl)benzyl)amino)ethyl)chroman-5-yl)acetic acid]"
> 1,≤ 1,≤ 1,"CCc1cnc(N(CCCC2Oc3cc(CC(=O)O)ccc3CC2C)Cc2ccc(OC(F)(F)F)cc2)nc1 (single isomer, unassigned) [Example 18D]"
> 1,≤ 1,≤ 1,"CCc1cnc(N(CCCC2CCc3ccc(CC(=O)O)cc3O2)Cc2ccc(OC(F)(F)F)cc2)nc1 (stereo not drawn) [Example 12, 2-(2-(3-((5-Ethylpyrimidin-2-yl)(4-(trifluoromethoxy)benzyl)amino)propyl)chroman-7-yl)acetic acid]"
> 1,> 1,> 1,"CCc1cnc(N(CCCN2CCc3ccc(CC(=O)O)cc3C2)c2ccc(C(F)(F)F)cc2)nc1 [Example 7, (2-[3-[(5-Ethyl-pyrimidin-2-yl)-(4-trifluoromethyl-phenyl)-amino]-propyl]-1,2,3,4-tetrahydroisoquinolin-7-yl)-acetic acid]"
> 1,≤ 1,≤ 1,"CCc1cnc(N(CCCC2CCc3c(CC(=O)O)cccc3O2)CCc2ccc(OC(F)(F)F)cc2)nc1 (stereo not drawn) [Example 15, 2-(2-(3-((5-Ethylpyrimidin-2-yl)(4-(trifluoromethoxy)phenethyl)amino)propyl)chroman-5-yl)acetic acid]"
> 1,≤ 1,≤ 1,"CCc1cnc(N(CCCC2CCc3ccc(CC(=O)O)cc3O2)CCc2ccc(OC(F)(F)F)cc2)nc1 (stereo not drawn) [Example 14, 2-(2-(3-((5-Ethylpyrimidin-2-yl)(4-(trifluoromethoxy)phenethyl)amino)propyl)chroman-7-yl)acetic acid]"
> 1,≤ 1,≤ 1,"CCc1cnc(N(CCN2CCc3ccc(CC(=O)O)cc3C2)Cc2ccc(OC(F)(F)F)cc2)nc1 [Example 3, (2-{2-[(5-Ethyl-pyrimidin-2-yl)-(4-trifluoromethoxy-benzyl)-amino]-ethyl}-1,2,3,4-tetrahydro-isoquinolin-7-yl)-acetic acid]"
> 1,≤ 1,> 1,"CCc1cnc(N(CCCN2CCc3ccc(CC(=O)O)cc3C2)CCc2ccc(C(F)(F)F)cc2)nc1 [Example 9, [2-(3-{(5-Ethyl-pyrimidin-2-yl)-[2-(4-trifluoromethyl-phenyl)-ethyl]-amino}-propyl)-1,2,3,4-tetrahydro-isoquinolin-7-yl]-acetic acid]"

# — patent US20070219193A1, “ALKYLAMINE-SUBSTITUTED BICYCLIC ARYL COMPOUNDS USEFUL AS MODULATORS OF PPAR” (KALYPSYS, INC, priority 2006, published 2007)
